From patent US11505553B2, “2-(Het)aryl-substituted fused heterocycle derivatives as pesticides” (Bayer Aktiengesellschaft, priority 2017, dated 2022)

Experiments:
Format in all cases: in vivo
Phaedon cochleariae [1] = experiment: Phaedon cochleariae spray test; conditions: 168 h, application rate 100 g/ha, larvae, after 7 days, read-out: efficacy
Procedure: (§1) Solvent: 78.0 parts by weight of acetone • • 1.5 parts by weight of dimethylformamide Emulsifier: alkylaryl polyglycol ether To produce a suitable active ingredient formulation, 1 part by weight of active ingredient is dissolved with the specified parts by weight of solvent and made up to the desired concentration with water containing an emulsifier concentration of 1000 ppm. To produce further test concentrations, the formulation is diluted with emulsifier-containing water. Discs of Chinese cabbage leaves (Brassica pekinensis) are sprayed with an active ingredient formulation of the desired concentration and, after drying, populated with larvae of the mustard beetle (Phaedon cochleariae). After 7 days, the efficacy in % is determined. 100% means that all the beetle larvae have been killed; 0% means that no beetle larvae have been killed.

Lucilia cuprina = Lucilia cuprina test; conditions: 48 h, application rate 100 ppm, L1 larvae, after 2 days, read-out: efficacy (kill)
Procedure: Solvent: dimethyl sulfoxide To produce a suitable active ingredient formulation, 10 mg of active ingredient are mixed with 0.5 ml of dimethyl sulfoxide, and the concentrate is diluted with water to the desired concentration. About 20 L1 larvae of the Australian sheep blowfly (Lucilia cuprina) are transferred into a test vessel containing minced horsemeat and the active ingredient formulation of the desired concentration. After 2 days, the kill in % is determined. 100% means that all the larvae have been killed; 0% means that no larvae have been killed.

Phaedon cochleariae [2] = experiment: Phaedon cochleariae spray test (PHAECO), contrastive examples; conditions: 168 h, 7 dat, read-out: % efficacy
Procedure: Solvent: 78.0 parts by weight of acetone • • 1.5 parts by weight of dimethylformamide Emulsifier: alkylaryl polyglycol ether To produce an appropriate active ingredient formulation, 1 part by weight of active ingredient is dissolved with the stated parts by weight of solvent and made up with water containing an emulsifier concentration of 1000 ppm until the desired concentration is attained. For production of further test concentrations, the mixture is diluted with emulsifier-containing water. Discs of chinese cabbage leaves (Brassica pekinensis) are sprayed with an active ingredient formulation of the desired concentration and, after drying, populated with larvae of the mustard beetle (Phaedon cochleariae). After the desired time, the efficacy in % is determined. 100% means that all beetle larvae have been killed; 0% means that no beetle larvae have been killed.

Myzus persicae [3] = experiment: Myzus persicae spray test (MYZUPE S), bell pepper plants; conditions: 144 h, 6 dat, read-out: % efficacy
Procedure: Solvent: 14 parts by weight of dimethylformamide Emulsifier: alkylaryl polyglycol ether To produce an appropriate active ingredient formulation, 1 part by weight of active ingredient is dissolved with the stated parts by weight of solvent and made up with water containing an emulsifier concentration of 1000 ppm until the desired concentration is attained. For production of further test concentrations, the mixture is diluted with emulsifier-containing water. If addition of ammonium salts or/and penetrants is required, these are each added to the preparation solution in a concentration of 1000 ppm. Bell pepper plants (Capsicum annuum) severely infested by the green peach aphid (Myzus persicae) are treated by spraying with the active ingredient formulation in the desired concentration. After the desired time, the kill in % is determined. 100% means that all animals have been killed; 0% means that no animals have been killed.

Ctenocephalides felis [4] = experiment: Ctenocephalides felis in vitro contact test with adult cat fleas; conditions: application rate 5 μg/cm^2 (=500 g/ha), after 48 h, adult cat fleas dead or moribund, read-out: efficacy
Procedure: For the coating of the test tubes, 9 mg of active ingredient are first dissolved in 1 ml of acetone p.a. and then diluted to the desired concentration with acetone p.a. 250 μl of the solution are distributed homogeneously on the inner walls and the base of a 25 ml glass tube by turning and rocking on an orbital shaker (rocking rotation at 30 rpm for 2 h). With 900 ppm of active ingredient solution and internal surface area 44.7 cm^2, given homogeneous distribution, an area-based dose of 5 μg/cm^2 is achieved. After the solvent has evaporated off, the tubes are populated with 5-10 adult cat fleas (Ctenocephalides felis), sealed with a perforated plastic lid and incubated in a horizontal position at room temperature and ambient humidity. After 48 h, efficacy is determined. To this end, the tubes are stood upright and the fleas are knocked to the base of the tube. Fleas which remain motionless at the base or move in an uncoordinated manner are considered to be dead or moribund. […] 100% efficacy means that all the fleas were dead or moribund. 0% efficacy means that no fleas were harmed.

Ctenocephalides felis [5] = experiment: Ctenocephalides felis oral test; conditions: 48 h, application rate 100 ppm in citrated cattle blood, after 2 days, read-out: efficacy (kill)
Procedure: Solvent: dimethyl sulfoxide To produce a suitable active ingredient formulation, 10 mg of active ingredient are mixed with 0.5 ml of dimethyl sulfoxide. Dilution with citrated cattle blood gives the desired concentration. About 20 unfed adult cat fleas (Ctenocephalides felis) are placed into a chamber which is closed at the top and bottom with gauze. A metal cylinder whose bottom end is closed with parafilm is placed onto the chamber. The cylinder contains the blood/active ingredient formulation, which can be imbibed by the fleas through the parafilm membrane. After 2 days, the kill in % is determined. 100% means that all of the fleas have been killed; 0% means that none of the fleas have been killed.

Meloidogyne incognita = Meloidogyne incognita test; conditions: 336 h, application rate 20 ppm, formation of galls on lettuce after 14 days, read-out: nematicidal efficacy
Procedure: Solvent: 125.0 parts by weight of acetone To produce a suitable active ingredient formulation, 1 part by weight of active ingredient is mixed with the stated amount of solvent and the concentrate is diluted to the desired concentration with water. Vessels are filled with sand, active ingredient solution, an egg/larvae suspension of the southern root-knot nematode (Meloidogyne incognita) and lettuce seeds. The lettuce seeds germinate and the plants develop. The galls develop on the roots. After 14 days, the nematicidal efficacy in % is determined by the formation of galls. 100% means that no galls were found; 0% means that the number of galls on the treated plants corresponds to the untreated control.

Myzus persicae [6] = experiment: Myzus persicae spray test; conditions: foliar, 120 h, Chinese cabbage leaf discs, after 5 days, read-out: efficacy; for pest or weed control at 20 g/ha: application rate 20 g/ha; for pest or weed control at 100 g/ha: application rate 100 g/ha
Procedure: as §1, with “78” for “78.0”, “pekinensis) infested by all stages of the green peach aphid (Myzus persicae)” for “pekinensis)”, “concentration.” for “concentration and, after drying, populated with larvae of the mustard beetle (Phaedon cochleariae).”, “5” for “7”, “aphids” for “beetle larvae”

Myzus persicae [7] = experiment: Myzus persicae oral test; conditions: 120 h, after 5 days, read-out: efficacy; for pest or weed control at 0.8 ppm: application rate 0.8 ppm; for pest or weed control at 4 ppm: application rate 4 ppm
Procedure: Solvent: 100 parts by weight of acetone To produce a suitable active ingredient formulation, 1 part by weight of active ingredient is dissolved with the stated parts by weight of solvent and made up to the desired concentration with water. 50 μl of the active ingredient preparation are transferred into microtitre plates and made up to a final volume of 200 μl with 150 μl of IPL41 insect medium (33%+15% sugar). Subsequently, the plates are sealed with parafilm, which a mixed population of green peach aphids (Myzus persicae) within a second microtitre plate is able to puncture and imbibe the solution. After 5 days, the efficacy in % is determined. 100% means that all the aphids have been killed; 0% means that no aphids have been killed.

Boophilus microplus = Boophilus microplus injection test; conditions: application rate 20 μg/animal, laying of fertile eggs assessed after 7 days
Procedure: Solvent: dimethyl sulfoxide To produce a suitable active ingredient formulation, 10 mg of active ingredient are mixed with 0.5 ml of solvent and the concentrate is diluted to the desired concentration with solvent. 1 μl of the active ingredient solution is injected into the abdomen of 5 engorged adult female cattle ticks (Boophilus microplus). The animals are transferred into dishes and kept in a climate-controlled room. Efficacy is assessed after 7 days by laying of fertile eggs. Eggs which are not visibly fertile are stored in a climate-controlled cabinet until the larvae hatch after about 42 days. An efficacy of 100% means that none of the ticks has laid any fertile eggs; 0% means that all the eggs are fertile.

Myzus persicae [8] = experiment: Myzus persicae spray test (MYZUPE), contrastive examples; conditions: 120 h, 5 dat, read-out: % efficacy
Procedure: as §1, with “chinese” for “Chinese”, “pekinensis) infested by all stages of the green peach aphid (Myzus persicae)” for “pekinensis)”, “concentration. After” for “concentration and, after drying, populated with larvae of”, “desired time,” for “mustard beetle (Phaedon cochleariae). After 7 days,”, “aphids” for “the beetle larvae”, “aphids” for “beetle larvae”

Nilaparvata lugens = Nilaparvata lugens spray test (NILALU); conditions: 96 h, 4 dat, read-out: % efficacy
Procedure: Solvent: 52.5 parts by weight of acetone • 7 parts by weight of dimethylformamide
Emulsifier: alkylaryl polyglycol ether
To produce an appropriate active ingredient formulation, 1 part by weight of active ingredient is dissolved with the stated parts by weight of solvent and made up with water containing an emulsifier concentration of 1000 ppm until the desired concentration is attained. For production of further test concentrations, the mixture is diluted with emulsifier-containing water. If addition of ammonium salts or/and penetrants is required, these are each added to the preparation solution in a concentration of 1000 ppm.
Rice plants (Oryza sativa) are sprayed with an active ingredient formulation of the desired concentration and then populated with larvae of the rice cicada (Nilaparvata lugens).
After the desired time, the efficacy in % is determined. 100% means that all rice cicadas have been killed; 0% means that no rice cicadas have been killed.

SMILES | pest or weed control at 100 g/ha (Phaedon cochleariae [1]) [%] | pest or weed control at 100 ppm (Lucilia cuprina) [%] | Emax at 20 g/ha (Phaedon cochleariae [2]) [%] | Emax at 100 g/ha (Phaedon cochleariae [2]) [%] | Emax at 0.8 ppm (Myzus persicae [3]) [%] | pest or weed control at 5 µg/cm2, 500 g/ha (Ctenocephalides felis [4]) [%] | pest or weed control at 100 ppm (Ctenocephalides felis [5]) [%] | pest or weed control at 20 ppm (Meloidogyne incognita) [%] | pest or weed control at 20 g/ha (Myzus persicae [6]) [%] | pest or weed control at 100 g/ha (Myzus persicae [6]) [%] | pest or weed control at 0.8 ppm (Myzus persicae [7]) [%] | pest or weed control at 4 ppm (Myzus persicae [7]) [%] | efficacy (Boophilus microplus) [%] | Emax at 4 g/ha (Phaedon cochleariae [2]; 4 g/ha) [%] | Emax at 4 g/ha (Myzus persicae [8]) [%] | Emax at 4 g/ha (Nilaparvata lugens) [%]
CCS(=O)(=O)c1ccc(NC(=O)N(C)C)nc1-c1nc2cc(C(F)(F)F)nnc2n1C [Example I-2] | 100 | 100 | 83 | 100 | 90 | 100 | 100 | 100 | 100 | 90 | 100 | 100 |  |  |  | 
CNC(=O)N(C)c1ccc(S(C)(=O)=O)c(-c2nc3cc(C(F)(F)F)nnc3n2C)n1 [Example I-6] |  |  |  |  | 85 |  | 100 |  |  | 90 | 100 | 100 | 80 |  |  | 
CCS(=O)(=O)c1ccc(NC(=O)NC)nc1-c1nc2cc(C(F)(F)F)nnc2n1C [Example I-1, 1-{5-(ethylsulfonyl)-6-[7-methyl-3-(trifluoromethyl)-7H-imidazo[4,5-c]pyridazin-6-yl]pyridin-2-yl}-3-methylurea] | 100 | 100 | 83 | 100 | 70 | 100 | 100 | 100 | 90 | 100 | 90 | 100 |  | 67 | 90 | 
CCS(=O)(=O)c1ccc(N(C)C(=O)NC)nc1-c1nc2cc(C(F)(F)F)nnc2n1C [Example I-3] | 100 | 90 |  |  |  | 100 | 100 | 100 | 100 |  | 100 | 100 |  |  |  | 70
